Assay results: publication PMC1978517, “Novel Decapeptides that Bind Avidly and Deliver Radioisotope to Colon Cancer Cells” (PLoS ONE, 2007)

Key:
[1] = test system: Caco-2 cells; assay: Release and retention of 32P counts after washing and further incubation in complete medium; assay type: cell-based
Experimental: (§1) The peptide binding, washing and assay experiment described for Figure 2 was then repeated in the seven most avidly binding cell lines using MA5, except that after three washes of medium, 200 ul of complete medium was added to each well and the cells were incubated overnight at 37°C. […] Approximately 88% of MA5 radioactive counts initially retained by the colon cancer cell lines was released into the medium, while approximately 12% of initially retained radioactive counts were retained by cells. The two esophageal cell lines that originally retained large amounts of radioactive counts, QH-TRT and SEG1, retained 39% and 37% of their original counts, respectively, after overnight incubation. Caco-2 cells retained the greatest number of counts, averaging 58,305 cpm in triplicate wells containing 10,000 cells each. This figure represents approximately 5.8 cpm, or 348 counts per hour, per cell (i.e., when extrapolated over a potential 2-week exposure period, equivalent to over 87,000 counts per cell).

[2] = test system: seven avidly binding cell lines (Caco-2, HCT15, HCT116, LoVo, HT29, SEG1, QHTRT); assay: Binding of 32P-labeled decapeptide to cell lines, two hour incubation, scintillation counting; assay type: cell-based; conditions: two hour incubation with 32P-labeled peptide, seven of the eighteen cell lines
Experimental: (§2) Assay of the binding of ^32P-labeled decapeptides to cell lines: Cell lines were grown in complete medium containing 10% bovine fetal serum (heat inactivated). In each well of a 96-well plate, 10,000 cells from various cell lines were grown overnight in complete medium. Ten µl of the labeled-peptide in 1 X PBS and 90 µl of complete medium were added to each well and incubated at 37°C at various times of up to two hours. The peptide-medium was removed and one µl added to 100 ul gel loading buffer and counted by scintillation counting for the probe control or run on a polyacrylamide-SDS gel (Biorad).The adherent cells were briefly and gently washed with complete medium three times and some wells were assayed immediately by adding 100 µl of gel loading buffer to each well and run on a gel or counted in a scintillation counter. Other wells had 100 µl complete medium added and incubated for a further time period. Samples were either counted in a liquid scintillation counter or run on polyacrylamide-SDS gels, exposed to x-ray film, and the film developed.

[3] = test system: eleven nonbinding cell lines (HeLa S3, RKO, 1271, A549, KYSE-70, HT1080, 293H, 1459, HEEpiC, T84, SK-BR-3); assay: as above; assay type: cell-based
Experimental: as §2

[4] = test system: Caco-2 colon adenocarcinoma cell line
Experimental: as §2

[5] = test system: seven avidly binding cell lines; assay: Release and retention of 32P counts after washing and overnight incubation in complete medium; assay type: cell-based; conditions: all seven avidly binding lines
Experimental: as §1

[6] = test system: colon cancer cell lines; assay: as above; assay type: cell-based; conditions: two hour incubation, three washes
Experimental: as §1

[7] = test system: QH-TRT Barrett's esophagus cell line; assay: as above; assay type: cell-based; conditions: two hour incubation, three washes, overnight at 37°C in complete medium
Experimental: as §1

[8] = test system: SEG1 esophageal adenocarcinoma cell line; assay: as above; assay type: cell-based; conditions: two hour incubation, three washes, overnight at 37°C in complete medium
Experimental: as §1

[9] = two hours incubation, three wash steps, overnight incubation in medium
[10] = two hour incubation, three washes, 10,000 cells

ratio of cpm retained by Caco-2 to the average of the eleven nonbinding cell lines ([4]; Caco-2): 818
Sequence: GSRRASVASA [MA5]
time course of release of counts (in words) ([1]; 48-hour time period after two hour incubation and washing, triplicate determinations): majority of the total counts released over the 48 hour time period are released by nine hours of incubation
counts retained by cells after overnight incubation ([1]; average of triplicate wells containing 10,000 cells each, two hour incubation, washes, overnight in medium): 58,305 cpm
counts per cell extrapolated over a potential 2-week exposure period ([1]; extrapolated): over 87,000 counts per cell
counts per cell per day, extrapolated ([1]; extrapolated from 5.8 cpm per cell): over 8,300 counts per cell per day
originally retained 32P isotope released [1, 9]: 88%
originally retained 32P isotope retained by cells [1, 9]: 12%
retention of radioactivity (in words) [2]: very strong retention of radioactivity
binding (in words) ([3]; two hour incubation with 32P-labeled peptide, eleven of eighteen cell lines): did not bind
average 32P counts bound, remaining eleven cell lines along with one blank well [3, 10]: 365 cpm
mean values of 32P counts bound, blank wells and nonbinding cell lines [3, 10]: less than 550 cpm
share of the total radioactive counts present in the incubation well retained by cells ([4]; after two-hour incubation): approximately 18%
radioactive dose transferred per cell ([4]; two hour incubation, wash, immediate determination of retained radioactivity): over 29 counts per minute per cell
retention difference between variants (MA2 vs MA5) ([4]; two hours' incubation, counts bound as percentage of total counts): 70 fold
radioactivity released after an overnight incubation [5]: 63% to 88
radioactive counts initially retained that were released into the medium ([6]; 200 ul complete medium, overnight at 37°C): Approximately 88%
initially retained radioactive counts retained by cells ([6]; overnight at 37°C in complete medium): approximately 12%
original counts retained after overnight incubation [7]: 39%
original counts retained after overnight incubation [8]: 37%
